# Molecular target: T1, hDGAT1 (Homo sapiens, UniProt O75907)
# T1 construct: host or cells: Sf9 insect cells (baculovirus); microsomal preparation
# T1 sequence (O75907 1-488): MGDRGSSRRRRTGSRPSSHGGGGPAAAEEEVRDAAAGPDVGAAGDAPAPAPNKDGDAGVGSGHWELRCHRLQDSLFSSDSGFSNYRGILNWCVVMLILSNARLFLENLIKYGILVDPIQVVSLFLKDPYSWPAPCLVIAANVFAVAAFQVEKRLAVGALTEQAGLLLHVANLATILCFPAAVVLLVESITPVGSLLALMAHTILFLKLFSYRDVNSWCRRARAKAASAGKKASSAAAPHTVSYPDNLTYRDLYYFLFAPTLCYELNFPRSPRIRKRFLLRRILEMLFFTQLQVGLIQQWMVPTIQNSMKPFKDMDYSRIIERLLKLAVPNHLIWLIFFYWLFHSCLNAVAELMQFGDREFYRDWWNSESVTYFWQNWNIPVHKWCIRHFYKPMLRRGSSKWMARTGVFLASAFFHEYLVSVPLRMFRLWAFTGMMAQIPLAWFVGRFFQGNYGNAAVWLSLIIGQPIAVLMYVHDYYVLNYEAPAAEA
# Assay: In-vitro DGAT1 assay (hDGAT1 microsomes from Sf9 cells, 14C oleoyl CoA, triglyceride formation)
# Format: biochemical
# Conditions: At 1 μM
# Method in brief: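 Human DGAT1 in baculovirus-infected Sf9 microsomes (2.5–10 μg), [14C]oleoyl-CoA with 409.5, 1228.5 or 1638 μM 1,2-dioleoyl-sn-glycerol, Tris-HCl pH 7.4 buffer with BSA. Compounds screened at 10, 5 and 1 μM in duplicate. Reaction 10 min at 37 °C; heptane-extracted [14C]triglyceride counted by scintillation.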
row,inhibition at 1 µM [%],Structure (SMILES)
1,75 to 100,"CC(C)[C@H](NC(=O)c1cc(-c2ccc(NC(=O)Nc3ccc(Cl)cc3C(F)(F)F)cc2)no1)C(=O)O [Example 215, (S)-2-(3-(4-(3-(4-chloro-2-(trifluoromethyl)phenyl)ureido)phenyl)isoxazole-5-carboxamido)-3-methylbutanoic acid]"
2,0 to 50,"COC(=O)[C@H](NC(=O)c1cc(-c2ccc(NC(=O)Nc3ccccc3C#N)cc2)no1)C(C)C [Example 216, (R)-methyl 2-(3-(4-(3-(2-cyanophenyl)ureido)phenyl)isoxazole-5-carboxamido)-3-methylbutanoate]"
3,50 to 75,"CC(C)[C@@H](NC(=O)c1cc(-c2ccc(NC(=O)Nc3cccc(C#N)c3)cc2)no1)C(=O)O [Example 217, (R)-2-(3-(4-(3-(3-cyanophenyl)ureido)phenyl)isoxazole-5-carboxamido)-3-methylbutanoic acid]"
4,0 to 50,"COC(=O)[C@H](NC(=O)c1cc(-c2ccc(NC(=O)Nc3ccc(C#N)cc3)cc2)no1)C(C)C [Example 218, (R)-methyl 2-(3-(4-(3-(4-cyanophenyl)ureido)phenyl)isoxazole-5-carboxamido)-3-methylbutanoate]"
5,50 to 75,"CC(C)[C@@H](NC(=O)c1cc(-c2ccc(NC(=O)Nc3ccc(C#N)cc3)cc2)no1)C(=O)O [Example 219, (R)-2-(3-(4-(3-(4-Cyanophenyl)ureido)phenyl)isoxazole-5-carboxamido)-3-methylbutanoic acid]"
6,0 to 50,"COC(=O)[C@H](NC(=O)c1cc(-c2ccc(NC(=O)Nc3ccccc3Cl)cc2)no1)C(C)C [Example 220, (R)-Methyl 2-(3-(4-(3-(2-chlorophenyl)ureido)phenyl)isoxazole-5-carboxamido)-3-methylbutanoate]"
7,75 to 100,"CC(C)[C@@H](NC(=O)c1cc(-c2ccc(NC(=O)Nc3ccccc3Cl)cc2)no1)C(=O)O [Example 221, (R)-2-(3-(4-(3-(2-Chlorophenyl)ureido)phenyl)isoxazole-5-carboxamido)-3-methylbutanoic acid]"
8,0 to 50,"COC(=O)[C@H](NC(=S)c1cc(-c2ccc(NC(=O)Nc3ccc(C)cc3)cc2)no1)C(C)C [Example 223, (R)-Methyl 3-methyl-2-(3-(4-(3-p-tolylureido)phenyl)isoxazole-5-carbothioamido)butanoate]"
9,0 to 50,"CCS/C(=N\[C@@H](C(=O)OC)C(C)C)c1cc(-c2ccc(NC(=O)Nc3ccccc3F)cc2)no1 [Example 224, (R,Z)-Methyl 2-(ethylthio(3-(4-(3-(2-fluorophenyl)ureido)phenyl)isoxazol-5-yl)methyleneamino)-3-methylbutanoate]"
10,0 to 50,"CCS/C(=N\[C@@H](C(=O)OC)C(C)C)c1cc(-c2ccc(NC(=O)Nc3ccc(C)cc3)cc2)no1 [Example 225, (R,Z)-Methyl 2-(ethylthio(3-(4-(3-p-tolylureido)phenyl)isoxazol-5-yl)methyleneamino)-3-methylbutanoate]"
11,0 to 50,"CC(C)[C@@H](N/C(=N/O)c1cc(-c2ccc(NC(=O)Nc3ccccc3F)cc2)no1)C(=O)O [Example 226, (R,E)-2-(3-(4-(3-(2-Fluorophenyl)ureido)phenyl)-N′-hydroxyisoxazole-5-carboximidamido)-3-methylbutanoic acid]"
12,75 to 100,"CC(C)c1ccc(NC(=O)Nc2ccc(-c3cc(C(=O)N[C@H](C(=O)O)C(C)C)on3)cc2)cc1 [Example 228, (S)-2-(3-(4-(3-(4-Isopropylphenyl)ureido)phenyl)isoxazole-5-carboxamido)-3-methylbutanoic acid]"
13,0 to 50,"CC(C)[C@H](NC(=O)c1cc(-c2ccc(NC(=O)Nc3c(F)cccc3C(F)(F)F)cc2)no1)C(=O)O [Example 230, (S)-2-(3-(4-(3-(2-Fluoro-6-(trifluoromethyl)phenyl)ureido)phenyl)isoxazole-5-carboxamido)-3-methylbutanoic acid]"
14,75 to 100,"CC(C)[C@H](NC(=O)c1cc(-c2ccc(NC(=O)Nc3ccc(C(F)(F)F)cc3Cl)cc2)no1)C(=O)O [Example 232, (S)-2-(3-(4-(3-(2-Chloro-4-(trifluoromethyl)phenyl)ureido)phenyl)isoxazole-5-carboxamido)-3-methylbutanoic acid]"
15,0 to 50,"CC(C)[C@H](NC(=O)c1cc(-c2ccc(NC(=O)Nc3c(Cl)cccc3C(F)(F)F)cc2)no1)C(=O)O [Example 234, (S)-2-(3-(4-(3-(2-Chloro-6-(trifluoromethyl)phenyl)ureido)phenyl)isoxazole-5-carboxamido)-3-methylbutanoic acid]"
16,75 to 100,"CC(C)[C@H](NC(=O)c1cc(-c2ccc(NC(=O)Nc3cc(Cl)ccc3Oc3ccccc3)cc2)no1)C(=O)O [Example 236, (S)-2-(3-(4-(3-(5-Chloro-2-phenoxyphenyl)ureido)phenyl)isoxazole-5-carboxamido)-3-methylbutanoic acid]"
17,75 to 100,"CC(C)[C@H](NC(=O)c1cc(-c2ccc(NC(=O)Nc3ccccc3Oc3ccccc3)cc2)no1)C(=O)O [Example 238, (S)-3-Methyl-2-(3-(4-(3-(2-phenoxyphenyl)ureido)phenyl)isoxazole-5-carboxamido)butanoic acid]"
18,75 to 100,"CC(C)[C@H](NC(=O)c1cc(-c2ccc(NC(=O)Nc3ccc(Oc4ccccc4)cc3)cc2)no1)C(=O)O [Example 240, (S)-3-Methyl-2-(3-(4-(3-(4-phenoxyphenyl)ureido)phenyl)isoxazole-5-carboxamido)butanoic acid]"
19,75 to 100,"Cc1ccc(NC(=O)Nc2ccc(-c3cc(C(=O)NC(C(=O)O)C(C)C)on3)cc2)cc1Cl (stereo not shown) [Example 248, 2-(3-(4-(3-(3-Chloro-4-methylphenyl)ureido)phenyl)isoxazole-5-carboxamido)-3-methylbutanoic acid]"
20,75 to 100,"Cc1ccc(NC(=O)Nc2ccc(-c3cc(C(=O)NC(C(=O)O)C(C)C)on3)cc2)cc1F (stereo not shown) [Example 250, 2-(3-(4-(3-(3-Fluoro-4-methylphenyl)ureido)phenyl)isoxazole-5-carboxamido)-3-methylbutanoic acid]"
21,75 to 100,"Cc1ccc(F)cc1NC(=O)Nc1ccc(-c2cc(C(=O)NC(C(=O)O)C(C)C)on2)cc1 (stereo not shown) [Example 252, 2-(3-(4-(3-(5-Fluoro-2-methylphenyl)ureido)phenyl)isoxazole-5-carboxamido)-3-methylbutanoic acid]"

# Same assay, conditions: At 5 μM
inhibition at 5 µM [%],% inhibition of hDGAT1,Structure (SMILES)
50 to 75,,"COC(=O)[C@H](NC(=S)c1cc(-c2ccc(NC(=O)Nc3ccccc3F)cc2)no1)C(C)C [Example 222, (R)-Methyl 2-(3-(4-(3-(2-fluorophenyl)ureido)phenyl)isoxazole-5-carbothioamido)-3-methylbutanoate]"
0 to 50,,"COC(=O)C(Cc1ccccc1)NC(=O)c1cc(-c2ccc(NC(=O)Nc3ccccc3F)cc2)no1 (stereo not shown) [Example 241, Methyl 2-(3-(4-(3-(2-fluorophenyl)ureido)phenyl)isoxazole-5-carboxamido)-3-phenylpropanoate]"
50 to 75,,"O=C(Nc1ccc(-c2cc(C(=O)NC(Cc3ccccc3)C(=O)O)on2)cc1)Nc1ccccc1F (stereo not shown) [Example 242, 2-(3-(4-(3-(2-Fluorophenyl)ureido)phenyl)isoxazole-5-carboxamido)-3-phenylpropanoic acid]"
,+ (>0% Inhibition ≦50),"COC(=O)C(Cc1ccccc1)NC(=O)c1cc(-c2ccc(NC(=O)Nc3ccc(C)cc3)cc2)no1 (stereo not shown) [Example 243, Methyl 3-phenyl-2-(3-(4-(3-p-tolylureido)phenyl)isoxazole-5-carboxamido) propanoate]"
50 to 75,,"Cc1ccc(NC(=O)Nc2ccc(-c3cc(C(=O)NC(Cc4ccccc4)C(=O)O)on3)cc2)cc1 (stereo not shown) [Example 244, 3-Phenyl-2-(3-(4-(3-p-tolylureido)phenyl)isoxazole-5-carboxamido) propanoic acid]"
0 to 50,,"COC(=O)C(Cc1ccccc1)NC(=O)c1cc(-c2ccc(NC(=O)Nc3ccc(F)cc3F)cc2)no1 (stereo not shown) [Example 245, Methyl 2-(3-(4-(3-(2,4-difluorophenyl)ureido)phenyl)isoxazole-5-carboxamido)-3-phenylpropanoate]"
50 to 75,,"O=C(Nc1ccc(-c2cc(C(=O)NC(Cc3ccccc3)C(=O)O)on2)cc1)Nc1ccc(F)cc1F (stereo not shown) [Example 246, 2-(3-(4-(3-(2,4-Difluorophenyl)ureido)phenyl)isoxazole-5-carboxamido)-3-phenylpropanoic acid]"
0 to 50,,"COC(=O)CCCNC(=O)c1cc(-c2ccc(NC(=O)Nc3ccccc3F)cc2)no1 [Example 253, Methyl 4-(3-(4-(3-(2-fluorophenyl)ureido)phenyl)isoxazole-5-carboxamido)butanoate]"
50 to 75,,"O=C(O)CCCNC(=O)c1cc(-c2ccc(NC(=O)Nc3ccccc3F)cc2)no1 [Example 254, 4-(3-(4-(3-(2-Fluorophenyl)ureido)phenyl)isoxazole-5-carboxamido) butanoic acid]"
,+ (>0% Inhibition ≦50),"COC(=O)CCCNC(=O)c1cc(-c2ccc(NC(=O)Nc3ccc(C)cc3)cc2)no1 [Example 255, Methyl 4-(3-(4-(3-p-tolylureido)phenyl)isoxazole-5-carboxamido) butanoate]"

# From US8835428B2, “Diacylglycerol acyltransferase inhibitors” (Piramal Enterprises Limited, priority 2008, dated 2014)
